Row | Structure (SMILES) | melting point
1 | COC(CNC(=O)c1cc(I)cc(I)c1I)OC [Compound I-1, N-(2,2-dimethoxyethyl)-2,3,5-triiodobenzamide] | 180 to 182 °C
2 | COC(CNC(=O)c1ccc(I)cc1)OC [Compound I-6] | 156 to 158 °C
3 | COC(CNC(=O)c1cc(I)ccc1I)OC [Compound I-7] | 165 to 166 °C
4 | O=CCNC(=O)c1cc(I)cc(I)c1I [Compound I-8] | 90 to 92 °C
5 | COC(CNC(=O)c1ccc(I)cn1)OC [Compound I-9] | 178 to 180 °C
6 | COC(CNC(=O)COc1c(I)cc(I)cc1I)OC [Compound I-10] | 170 to 171 °C
7 | COC(CNC(=O)Cc1cc(I)cc(I)c1I)OC [Compound I-11] | 172 to 173 °C
